From paper PMC5656322, “BAK1 is involved in AtRALF1-induced inhibition of root cell expansion” (PLoS Genetics, 2017)
Like-named read-outs stand apart in the source and are kept apart here. Values belong to the molecule of their own block, whether it stands above or below them. Where no end group is shown, it is not given here. acridinium ester = acridinium ester label conjugated to the N-terminus of the peptide

Tests used:
[1] = test system: Arabidopsis seedlings, primary root; test: Root growth inhibition assay, liquid medium, 24-well plates; type: in vivo, Arabidopsis thaliana; conditions: 10 μM, 2 days; bak1-1, bak1-3 and bak1-4 mutants
Procedure: (§1) (A) and (B) Arabidopsis seedlings (2 days old) were treated with 10 μM AtRALF1 or water (H20) for 2 days. The values are the mean ± SD of at least 25 seedlings. Triple asterisks indicate P < 0.01 (Student’s t test); ns, not significant. (C) Four-day-old seedlings were transferred to media containing different concentrations of AtRALF1, and the primary root length was measured after 8 days of treatment. The data represent the mean value ± SD of 30 seedlings. […] Representative Arabidopsis seedlings after 8 days of treatment with AtRALF1 are shown below. Seedlings were arranged on plates after the treatment for imaging. Scale bars, 1 cm. (D) Two-day-old seedlings were treated with 10 μM AtRALF1 or water for 2 days, and root cell length was measured after 2 days of treatment. Cells from the root endodermis in the differentiation zone were measured. The values are the mean ± SD of approximately 150 cells. Triple asterisks indicate P < 0.01 (Student’s t test); ns, not significant.
(§2) Aliquots of 1 ml of medium containing seeds were distributed into 24-well plates. The peptides (10 μM) were added after 2 days, and the root length was measured 2 days after treatment. To maximize root growth, the seeds were germinated in vertical plates. […] The root length was measured 8 days after treatment unless stated otherwise. Control plants were grown under identical conditions in a peptide-free medium. Quantitative data were obtained as previously described. The experiments were repeated at least 3 times using independent biological replicates with similar results. The data from one representative experiment are shown. For cell length measurements, AtRALF1 peptide (10 μM) was added after 2 days of germination, and the cell length was measured after 2 days of treatment. The cell wall was stained with a 1 mg ml^-1 propidium iodide solution (Sigma) in the dark for 15 min and washed twice with water. Cells of the endodermis of the root differentiation zone were imaged and measured using confocal microscopy (Olympus FV1000). Approximately 30 plants from each genetic background and at least 5 cells per root were measured. The wavelengths for excitation and emission were 555 and 655 nm, respectively. Image processing was completed using the Olympus FluoView software.
Arabidopsis seedlings (2-days-old) were treated with 10 μM AtRALF1 or water (H20) for 2 days. The values are the mean ± SD of at least 25 seedlings. Triple asterisks indicate P < 0.01 (Student’s t test); ns, not significant. (PDF) Click here for additional data file.
Supplementary file pgen.1007053.s002.pdf: S2 Fig Loss-of-function bak1 mutants are sensitive to the inhibitory activity of AtRALF23/34 on root growth. Arabidopsis seedlings (2-day-old) were treated with 10 μM RALF1(9–49), RALF1(I6A), AtRALF1, AtRALF23 and AtRALF34 or water (H20) for 2 days. The values are the mean ± SD of at least 20 seedlings. […] (PDF) Click here for additional data file.

[2] = test system: Arabidopsis seedlings, primary root; conditions: wild-type Arabidopsis; ref [5]; cited from earlier work
Procedure: To better understand the role of AtRALF1 and BRs in regulating cell expansion, we exposed different mutants and transgenic Arabidopsis plants with altered BR signaling pathways to the peptide hormone AtRALF1 at concentrations that inhibit root growth. Loss-of-function mutants (bri1-301, bsk3-2 and bak1-4), gain-of-function mutants (sud1, bes1-D and bzr1-D) and two overexpressor lines (BRI OX and DWF4 OX) were used in the root growth assays in the presence or absence of 10 μM AtRALF1 (Fig 1A).

[3] = test system: cell suspensions; conditions: ref [5]; cited from earlier work
[4] = test system: Arabidopsis seedlings, primary root; test: Root growth inhibition assay, vertical plates; type: in vivo, Arabidopsis thaliana; conditions: bak1 mutants, 0.1 μM, 8 days
Procedure: as §1
as §2, with “The experiments were repeated at least 3 times using independent biological replicates with similar results.” left out
Supplementary file pgen.1007053.s004.pdf: S4 Fig Analyses of root growth of Arabidopsis seedlings treated with AtRALF1 peptide for 8 days and evaluated daily. Four-day-old seedlings were transferred to media containing different concentrations of AtRALF1, and the primary root length was measured daily during the 8 days of treatment. Genotypes Wt, bak1-1, bak1-3 and bak1-4 are indicated on top of each series of graphics. The seedlings were treated with 0, 0.5, 1, 5 and 10 μM AtRALF1. The data represent the mean values ± SD of 30 seedlings. Double and triple asterisks indicate P < 0.05 and P <0.01, respectively (Student’s t test); ns, not significant. (PDF) Click here for additional data file.
Four-day-old seedlings were transferred to medium containing 10 μM AtRALF1, and the primary root length was measured after 8 days of treatment. The data represent the mean value ± SD of 20 seedlings. Triple asterisks indicate P < 0.01 (Student’s t test); ns, not significant. Representative Arabidopsis seedlings after 8 days of treatment with AtRALF1 are shown. The seedlings were arranged on plates after the treatment for imaging. Scale bars, 1 cm. (PDF) Click here for additional data file.
Four-day-old seedlings were transferred to medium containing 0.1 μM BAP, and the primary root length was measured after 8 days of treatment. The data represent the mean value ± SD of 10 seedlings.

[5] = test system: cytosolic Ca^2+ in Arabidopsis seedlings; test: Ca^2+ mobilization assay (apoaequorin luminescence); type: in vivo, Arabidopsis thaliana; conditions: acriAtRALF1 vs unlabeled AtRALF1, apoaequorin seedlings (S17A Fig)
Procedure: The cytoplasmic Ca^2+ assay was performed in Arabidopsis seedlings as described previously. Changes in Ca^2+ levels were measured using an Arabidopsis line homozygous for the single insertion of a transgene encoding a cytoplasmically expressed apoaequorin protein driven by the constitutive promoter 35S [53], here denoted Wt-aeq. Wt-aeq plants were crossed with bak1-3 mutants, and T3 generation plants overexpressing apoaequorin and containing a T-DNA insertion in the BAK1 gene, named bak1-3-aeq, were selected and evaluated using semi-quantitative RT-PCR with specific primers (S1 Table). Arabidopsis seedlings were grown in plates for 4 days. A single seedling was transferred into each well of a 96-well white microplate (Thermo Labsystems) containing 200 μl of medium supplemented with […] coelenterazine cp (Biotium) and incubated in the dark at 24 °C for 16 h. Each well containing a single seedling received recombinant AtRALF1 or acridinium-labeled AtRALF1 at a final concentration of 5, 10 or 100 nM as indicated. The resulting luminescence emission was monitored using a microplate reader (Biotec ELx 800) and 20 time-points for approximately 160 s. The experiments were repeated at least three times using independent biological replicates. The data shown are from one representative experiment.

[6] = test system: intact Arabidopsis seedlings; test: Binding assay with acridinium-labeled AtRALF1, intact seedlings; parameters: species or system Arabidopsis thaliana; conditions: for reduction of total acriAtRALF1 binding vs wild-type: 7 nM, 4 °C
Procedure: (§3) (A) Whole seedlings (5 days old) were treated for 15 min with acriAtRALF1 (acriR1), acriR1 and an excess of unlabeled AtRALF34 (R34), RALF1(9–49) [(R-9-49)], or AtRALF1 (R1), as indicated. The values are the mean ± SD of two measurements (5 seedlings each). (B) Microsomal fractions from wild-type and bak1 mutants were incubated for 15 min with acriAtRALF1 (acriR1), with acriR1 and an excess of unlabeled RALF1(9–49) [(R-9-49)], or with AtRALF1 (R1), as indicated. The values are the mean ± SD of two measurements. The proportions of labeled: unlabeled proteins are shown in parentheses. Single and triple asterisks indicate P < 0.1 and P < 0.01 (Student’s t test).
(§4) Arabidopsis seedlings were grown for 5 days on vertical plates. Roots were homogenized in extraction buffer [300 mM sucrose, 100 mM Tris-HCl pH 7.5, 25 mM EDTA, 25 mM NaF, 1 mM Na2MoO4, 1 mM PMSF and protease inhibitor cocktail (Roche), adjusted to pH 6.2], and the homogenate was spun at 2,000 x g for 10 min at 4 °C. The supernatant was recovered and centrifuged at 100,000 x g for 50 min at 4 °C to precipitate the microsomal pellet. The pellet was resuspended in the extraction buffer plus 0.5% Triton-X. Seedlings or microsomal fractions were placed in 200 μl of medium and incubated with 7 nM acridinium-labeled peptide (acriAtRALF1 or acriAtRALF34) and different concentrations of AtRALF1, AtRALF34 or RALF1(9–49) for 15–20 min at 4 °C on a shaker. After incubation, the seedlings or microsomal fractions were washed three times with the same medium. Unless indicated otherwise, five entire seedlings and approximately 10 ng of microsomal fractions were used per treatment. The resulting luminescence emissions from the acridinium were measured using a microplate reader (Biotec ELx 800) at 2 s after injecting 50 μl of a solution containing 20 mM H2O2 in 0.1 M NaOH. These experiments were repeated at least three times using independent biological replicates. Duplicates were used for each concentration or treatment. The data shown are from one representative experiment.
Supplementary file pgen.1007053.s017.pdf: S17 Fig Analyses of acridinium-labeled AtRALF1 (acriAtRALF1) and binding of acriAtRALF1 in bak1-4 and fer4 mutants. (A) The Ca^2+ mobilization assay comparing the acriAtRALF1 activity with the AtRALF1 peptide. A total of 20 time-points per treatment were measured over 160 sec and summed. The results are the means ± SD of two measurements. (B) acriAtRALF1 binding in whole seedlings and only in roots of Arabidopsis. The roots were excised just before measurements. Ctr, seedlings treated with unlabeled AtRALF1. (C) Whole seedlings (5 days old) were treated for 20 min with acriAtRALF1 (acriR1), acriR1 and an excess of unlabeled AtRALF1 (R1), as indicated. The values are the mean ± SD of three measurements (5 seedlings each). The proportions of labeled: unlabeled proteins are shown in parentheses. Triple asterisks indicates P < 0.001 (Student’s t test). (PDF) Click here for additional data file.
Supplementary file pgen.1007053.s018.pdf: S18 Fig Binding of acridinium-labeled AtRALF1 and AtRALF34 to intact Arabidopsis seedlings. (A) bak7 seedlings (5 days old) were treated for 15 min with acriAtRALF1 (acriR1), acriR1 and an excess of unlabeled AtRALF1 (R1), as indicated. (B) bak1 seedlings (5 days old) were treated for 15 min with acriAtRALF34 (acriR34), acriR34 and an excess of unlabeled AtRALF34 (R34) or AtRALF1 (R1), as indicated. The proportions of labeled: unlabeled proteins are shown in parentheses. The values are the mean ± SD of two measurements (5 seedlings each). (PDF) Click here for additional data file.

[7] = test system: microsomal fractions from the roots of Arabidopsis; test: Binding assay with acridinium-labeled AtRALF1, microsomal fractions; parameters: species or system Arabidopsis thaliana
Procedure: as §3, §4

Molecule: AtRALF23: Arabidopsis RALF isoform (ATRRYISYGALRRNTIPCSRRGASYYNCRRGAQANPYSRGCSAITRCRRS; ends and bridges not checked; cysteine pairing not given here; UniProt Q9LUS7 89-138, looked up) [reference compound]
- primary root growth inhibition [1]: inhibited the primary root growth
- primary root growth inhibition [2]: inhibits the primary root growth of wild-type Arabidopsis plants
- alkalinization of the extracellular medium [3]: alkalinizes the extracellular medium of cell suspensions

Molecule: c1ccc(CNc2ncnc3nc[nH]c23)cc1 [6-benzylaminopurine (BAP), 6-benzylaminopurine, reference compound]
- root growth inhibition [4]: capable of inhibiting the root growth of bak1 mutants

- nature of acriAtRALF1 binding ([7]; microsomal fractions): specific and saturable
- reduction of total acriAtRALF1 binding vs wild-type ([7]; microsomal fractions of bak1 mutants, 7 nM, 4 °C): approximately 15%
Molecule: acriAtRALF1: acridinium-labeled AtRALF1; acridinium ester conjugated to the N-terminal of the peptide ({acridinium ester}-ATTKYISYQSLKRNSVPCSRRGASYYNCQNGAQANPYSRGCSKIARCRS; ends and bridges not checked)
- increase in cytoplasmic Ca^2+ [5]: induced an increase in cytoplasmic Ca^2+
- reduction of total acriAtRALF1 binding vs wild-type ([6]; bak1-1 seedlings, 15 min): 30%
- reduction of total acriAtRALF1 binding vs wild-type ([6]; bak1-3 seedlings, 15 min): 29%
- reduction of total acriAtRALF1 binding vs wild-type ([6]; bak1-4 seedlings, 15 min): 31%
- reduction of total acriAtRALF1 binding, wild-type vs bak7 ([6]; bak7 mutants, 15 min): no differences in the reduction of total binding between wild-type and bak7 mutants were observed
- reduction of total acriAtRALF1 binding ([6]; fer4 mutants, 20 min (S17C Fig)): approximately 48%
- source of acriAtRALF1 chemiluminescent signal ([6]; whole seedlings vs only roots (S17B Fig)): the roots were the only source of the chemiluminescent signal
